Reference: paper PMC12298351, “Novel 3,19-(N-Phenyl-3-(4-fluorophenyl)-pyrazole) Acetal of Andrographolide Promotes Cell Cycle Arrest and Apoptosis in MDA-MB-231 Breast Cancer Cells” (Pharmaceuticals, 2025)

Assays:
[1] = system: HCT-116; format: cell-based; settings: HCT-116, Colon
[2] = system: TK-10; format: cell-based; settings: TK-10, Renal
[3] = system: HL-60(TB)
[4] = system: MOLT-4; settings: MOLT-4, Leukemia
[5] = system: SR
[6] = system: EKVX
[7] = system: HOP-62
[8] = system: HOP-92
[9] = system: NCI-H460
[10] = system: NCI-H522
[11] = system: HCC-2998; settings: HCC-2998, Colon
[12] = system: HCT-15; settings: HCT-15, Colon
[13] = system: KM12; settings: KM12, Colon
[14] = system: SF-268; settings: SF-268, CNS
[15] = system: SF-539; settings: SF-539, CNS
[16] = system: SNB-75; settings: SNB-75, CNS
[17] = system: U251; settings: U251, CNS
[18] = system: LOX IMVI
[19] = system: MALME-3M; settings: Melanoma
[20] = system: SK-MEL-28; settings: SK-MEL-28, Melanoma
[21] = system: UACC-257; settings: UACC-257, Melanoma
[22] = system: IGROV1; settings: IGROV1, Ovarian
[23] = system: OVCAR-3; settings: OVCAR-3, Ovarian
[24] = system: A498; settings: A498, Renal
[25] = system: ACHN
[26] = system: CAKI-1; settings: CAKI-1, Renal
[27] = system: PC-3; settings: PC-3, Prostate
[28] = system: MDA-MB-231
[29] = system: HS 578T
[30] = system: T-47D
[31] = system: MDA-MB-468; settings: MDA-MB-468, Breast
[32] = read-out: 50% lethal concentration (LC50)
[33] = read-out: 50% lethal concentration (LC50), Leukemia
[34] = read-out: 50% lethal concentration (LC50), Breast

C=C1CCC2C3(C)COC(c4cn(-c5ccccc5)nc4-c4ccc(Br)cc4)OC3CCC2(C)C1CC=C1C(=O)OCC1O (centres unmarked) [1h]
GI50 [1]: 0.94 µM
Total growth inhibition (TGI) [1]: 2.48 µM
CC50 [1, 32]: 6.3 µM
GI50 [2]: 1.19 µM
GI50 ([3]; Leukemia): 0.67 µM
CC50 [3, 33]: > 100 µM
GI50 [4]: 0.61 µM
CC50 [4, 32]: > 100 µM
GI50 ([5]; Leukemia): 1.69 µM
Total growth inhibition (TGI) ([5]; Leukemia): 8.13 µM
CC50 [5, 33]: > 100 µM
Total growth inhibition (TGI) ([6]; Non-Small Cell Lung): 5.35 µM
GI50 ([6]; Non-Small-Cell Lung): 2.21 µM
CC50 ([6]; read-out: 50% lethal concentration (LC50), Non-Small Cell Lung): > 100 µM
Total growth inhibition (TGI) ([7]; HOP-62, Non-Small Cell Lung): 3.83 µM
GI50 ([7]; HOP-62, Non-Small-Cell Lung): 1.8 µM
CC50 ([7]; read-out: 50% lethal concentration (LC50), HOP-62, Non-Small Cell Lung): 8.12 µM
Total growth inhibition (TGI) ([8]; HOP-92, Non-Small Cell Lung): 2.92 µM
GI50 ([8]; HOP-92, Non-Small-Cell Lung): 1.38 µM
CC50 ([8]; read-out: 50% lethal concentration (LC50), HOP-92, Non-Small Cell Lung): 6.2 µM
Total growth inhibition (TGI) ([9]; NCI-H460, Non-Small Cell Lung): 3.34 µM
GI50 ([9]; NCI-H460, Non-Small-Cell Lung): 1.59 µM
CC50 ([9]; read-out: 50% lethal concentration (LC50), NCI-H460, Non-Small Cell Lung): 7 µM
Total growth inhibition (TGI) ([10]; NCI-H522, Non-Small Cell Lung): 3.37 µM
GI50 ([10]; NCI-H522, Non-Small-Cell Lung): 1.69 µM
CC50 ([10]; read-out: 50% lethal concentration (LC50), NCI-H522, Non-Small Cell Lung): 6.68 µM
GI50 [11]: 1.83 µM
Total growth inhibition (TGI) [11]: 3.49 µM
GI50 [12]: 1.6 µM
Total growth inhibition (TGI) [12]: 3.3 µM
CC50 [12, 32]: 6.83 µM
GI50 [13]: 1.68 µM
Total growth inhibition (TGI) [13]: 3.68 µM
GI50 [14]: 2.11 µM
Total growth inhibition (TGI) [14]: 4.68 µM
CC50 [14, 32]: 11.5 µM
GI50 [15]: 1.76 µM
Total growth inhibition (TGI) [15]: 3.18 µM
CC50 [15, 32]: 5.73 µM
GI50 [16]: 1.51 µM
Total growth inhibition (TGI) [16]: 2.91 µM
CC50 [16, 32]: 5.75 µM
GI50 [17]: 2.11 µM
Total growth inhibition (TGI) [17]: 2.89 µM
GI50 ([18]; Melanoma): 1.55 µM
Total growth inhibition (TGI) ([18]; Melanoma): 2.9 µM
CC50 ([18]; read-out: 50% lethal concentration (LC50), Melanoma): 5.41 µM
GI50 [19]: 1.6 µM
Total growth inhibition (TGI) [19]: 3.11 µM
GI50 [20]: 1.73 µM
Total growth inhibition (TGI) [20]: 3.3 µM
CC50 [20, 32]: 6.3 µM
GI50 [21]: 1.7 µM
Total growth inhibition (TGI) [21]: 3.35 µM
GI50 [22]: 1.67 µM
Total growth inhibition (TGI) [22]: 5.16 µM
CC50 [22, 32]: > 100 µM
GI50 [23]: 1.52 µM
Total growth inhibition (TGI) [23]: 3.32 µM
CC50 [23, 32]: 7.25 µM
GI50 [24]: 4.35 µM
Total growth inhibition (TGI) [24]: 1.66 µM
CC50 [24, 32]: 53.6 µM
GI50 ([25]; Renal): 2.07 µM
Total growth inhibition (TGI) ([25]; Renal): 4.78 µM
CC50 ([25]; read-out: 50% lethal concentration (LC50), Renal): > 100 µM
GI50 [26]: 1.59 µM
Total growth inhibition (TGI) [26]: 3.49 µM
CC50 [26, 32]: 7.69 µM
GI50 [27]: 2.03 µM
CC50 [27, 32]: > 100 µM
GI50 ([28]; MDA-MB-231, Breast): 1.59 µM
Total growth inhibition (TGI) ([28]; MDA-MB-231/ATCC, Breast): 3.14 µM
CC50 ([28]; read-out: 50% lethal concentration (LC50), MDA-MB-231/ATCC, Breast): 6.19 µM
GI50 ([29]; Breast): 1.52 µM
Total growth inhibition (TGI) ([29]; Breast): 3.01 µM
CC50 [29, 34]: 5.94 µM
GI50 ([30]; Breast): 1.18 µM
Total growth inhibition (TGI) ([30]; Breast): 3.13 µM
CC50 [30, 34]: 8.33 µM
GI50 [31]: 1.93 µM
Total growth inhibition (TGI) [31]: 3.47 µM
CC50 [31, 32]: 6.23 µM
